The results in this text go back to PubChem BioAssay AID256 (DTP/NCI, 2004).

Inconclusive results and toxic doses are left out.

For this experiment, the system named is CD2F1 mice, L1210 leukemia ip, survival T/C. In words: NCI In Vivo Anticancer Drug Screen. Data for tumor model L1210 Leukemia (intraperitoneal) in CD2F1 (CDF1) mice. Particulars: higher = longer survival. A digest of the protocol: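 Activity against a transplanted murine tumor was judged by comparing the compound group with a vehicle group. The outcome in the treated animals was divided by that in the controls.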

Where [1] appears, read: endpoint: mean survival time, dose: 12.5 mg/kg/injection, schedule: Q01DX009 (ip), vehicle: saline with Tween-80.
Where [2] appears, read: endpoint: mean survival time, dose: 25.0 mg/kg/injection, schedule: Q01DX009 (ip), vehicle: saline with Tween-80.
Where [3] appears, read: endpoint: mean survival time, dose: 100.0 mg/kg/injection, schedule: Q04DX003 (ip), vehicle: saline with Tween-80.
Where [4] appears, read: endpoint: mean survival time, dose: 200.0 mg/kg/injection, schedule: Q04DX003 (ip), vehicle: saline with Tween-80.
The mark [5] stands for this setting: endpoint: mean survival time, dose: 400.0 mg/kg/injection, schedule: Q04DX003 (ip), vehicle: saline with Tween-80.
The mark [6] stands for this setting: endpoint: mean survival time, dose: 100.0 mg/kg/injection, schedule: Q01DX001 (ip), vehicle: saline with Tween-80.
Where [7] appears, read: endpoint: mean survival time, dose: 100.0 mg/kg/injection, schedule: Q01DX009 (ip), vehicle: saline with Tween-80.
Setting [8] is: endpoint: mean survival time, dose: 200.0 mg/kg/injection, schedule: Q01DX009 (ip), vehicle: saline with Tween-80.
Setting [9] is: endpoint: mean survival time, dose: 400.0 mg/kg/injection, schedule: Q01DX009 (ip), vehicle: saline with Tween-80.

For the compound `CC1=CC(=O)c2ccccc2C1=O`, the T/C (endpoint: mean survival time, dose: 9.0 mg/kg/injection, schedule: Q01DX009 (ip), vehicle: other) is 100 % of control; the T/C (endpoint: mean survival time, dose: 13.5 mg/kg/injection, schedule: Q01DX009 (ip), vehicle: other) was 114 % of control; the T/C (endpoint: mean survival time, dose: 20.0 mg/kg/injection, schedule: Q01DX001 (ip), vehicle: other) is 95 % of control; the T/C (endpoint: mean survival time, dose: 20.0 mg/kg/injection, schedule: Q01DX009 (ip), vehicle: other) was 97 % of control; the T/C (endpoint: mean survival time, dose: 30.0 mg/kg/injection, schedule: Q01DX009 (ip), vehicle: other) is 97 % of control; the T/C (endpoint: mean survival time, dose: 40.0 mg/kg/injection, schedule: Q01DX001 (ip), vehicle: other) was 104 % of control. The T/C (endpoint: mean survival time, dose: 60.0 mg/kg/injection, schedule: Q01DX001 (ip), vehicle: other) was 104 % of control and the T/C (endpoint: mean survival time, dose: 90.0 mg/kg/injection, schedule: Q01DX001 (ip), vehicle: other) is 104 % of control.

For the compound `Cc1cc(C(O)CNCCn2cnc3c2c(=O)n(C)c(=O)n3C)ccc1O` (configuration not stated), the T/C is 103 % of control (endpoint: mean survival time, dose: 12.5 mg/kg/injection, schedule: Q01DX005 (ip), vehicle: water); 100 % of control (endpoint: mean survival time, dose: 25.0 mg/kg/injection, schedule: Q01DX005 (ip), vehicle: water); 97 % of control (endpoint: mean survival time, dose: 50.0 mg/kg/injection, schedule: Q01DX005 (ip), vehicle: water); 100 % of control (endpoint: mean survival time, dose: 100.0 mg/kg/injection, schedule: Q01DX005 (ip), vehicle: water); 100 % of control (endpoint: mean survival time, dose: 200.0 mg/kg/injection, schedule: Q01DX005 (ip), vehicle: water).

`CN1C2C=C(c3ccccc3)C(Br)C1CC2` (configuration not stated): the T/C runs as follows: (endpoint: mean survival time, dose: 20.0 mg/kg/injection, schedule: Q01DX009 (ip), vehicle: saline) 103 % of control; (endpoint: mean survival time, dose: 40.0 mg/kg/injection, schedule: Q01DX009 (ip), vehicle: saline) 112 % of control; (endpoint: mean survival time, dose: 80.0 mg/kg/injection, schedule: Q01DX009 (ip), vehicle: saline) 110 % of control.

On to `O=N[O-].[Co].[N-]=C=S.[NH2-].[NH2-].[NH2-].[NH2-]`, for which the T/C under setting [1] was 115 % of control and the T/C under setting [2] was 115 % of control.

Consider `COc1ccc(C(=O)C(c2ccccc2)c2ccccc2)cc1`, for which the T/C under setting [3] is 93 % of control, the T/C under setting [4] was 94 % of control and the T/C under setting [5] was 90 % of control.

As for `NNC(=O)C1CCN1C(c1ccccc1)c1ccccc1` (configuration not stated), the T/C under setting [6] was 98 % of control.

Consider `CC(=O)O.CC(=O)O.CC(=O)O.[O]=[U]=[O]`, for which the T/C was 98 % of control (endpoint: mean survival time, dose: 12.5 mg/kg/injection, schedule: Q01DX009 (ip), vehicle: saline); 98 % of control (endpoint: mean survival time, dose: 25.0 mg/kg/injection, schedule: Q01DX009 (ip), vehicle: saline); 90 % of control (endpoint: mean survival time, dose: 50.0 mg/kg/injection, schedule: Q01DX009 (ip), vehicle: saline).

In the case of `CC(=O)OCC1CCN2CCCC12` (configuration not stated), the T/C is 101 % of control (endpoint: mean survival time, dose: 12.5 mg/kg/injection, schedule: Q01DX009 (ip), vehicle: water); 96 % of control (endpoint: mean survival time, dose: 25.0 mg/kg/injection, schedule: Q01DX009 (ip), vehicle: water); 98 % of control (endpoint: mean survival time, dose: 50.0 mg/kg/injection, schedule: Q01DX009 (ip), vehicle: water); 101 % of control (endpoint: mean survival time, dose: 100.0 mg/kg/injection, schedule: Q01DX009 (ip), vehicle: water); 101 % of control (endpoint: mean survival time, dose: 200.0 mg/kg/injection, schedule: Q01DX009 (ip), vehicle: water).

`Nc1ccc(C(=O)Nc2cccc(S(=O)(=O)F)c2)cc1`: the T/C is 101 % of control under setting [6]; 98 % of control (endpoint: mean survival time, dose: 200.0 mg/kg/injection, schedule: Q01DX001 (ip), vehicle: saline with Tween-80); 93 % of control (endpoint: mean survival time, dose: 400.0 mg/kg/injection, schedule: Q01DX001 (ip), vehicle: saline with Tween-80).

For `C=CCOC(=O)C1c2ccccc2Cc2ccccc21`, the T/C reads like this: under setting [7], 92 % of control; under setting [8], 106 % of control; under setting [9], 92 % of control.

As for `O=C(c1ccc(-c2ccccc2)cc1)C1(Br)CCCCC1`, the T/C runs as follows: under setting [7], 102 % of control; under setting [3], 101 % of control; under setting [8], 96 % of control; under setting [4], 102 % of control; under setting [9], 97 % of control; under setting [5], 98 % of control.

As to `CN1CCCN(C)C1c1ccccc1O`, the T/C under setting [1] was 105 % of control; the T/C under setting [2] is 102 % of control; the T/C (endpoint: mean survival time, dose: 50.0 mg/kg/injection, schedule: Q01DX009 (ip), vehicle: saline with Tween-80) was 107 % of control.

In the case of `CO[C@@]12[C@@H]3N[C@@H]3CN1C1=C(C(=O)C(NCc3ccco3)=C(C)C1=O)[C@@H]2COC(N)=O`, the T/C is 113 % of control (endpoint: mean survival time, dose: 1.5 mg/kg/injection, schedule: Q01DX001 (ip), vehicle: distilled water + Tween-80); 120 % of control (endpoint: mean survival time, dose: 3.0 mg/kg/injection, schedule: Q01DX001 (ip), vehicle: distilled water + Tween-80); 156 % of control (endpoint: mean survival time, dose: 24.0 mg/kg/injection, schedule: Q01DX001 (ip), vehicle: distilled water + Tween-80); 108 % of control (endpoint: mean survival time, dose: 36.0 mg/kg/injection, schedule: Q01DX001 (ip), vehicle: distilled water + Tween-80).

Regarding `O=S(=O)(/C=C/S(=O)(=O)c1ccccc1)c1ccccc1`, the T/C (endpoint: mean survival time, dose: 62.5 mg/kg/injection, schedule: Q01DX009 (ip), vehicle: Klucel (hydroxypropylcellulose) (HPC)) is 97 % of control and the T/C (endpoint: mean survival time, dose: 125.0 mg/kg/injection, schedule: Q01DX009 (ip), vehicle: Klucel (hydroxypropylcellulose) (HPC)) was 98 % of control.

Take `Nc1ccc2ccc(O)cc2c1`: the T/C is, setting by setting: (endpoint: mean survival time, dose: 100.0 mg/kg/injection, schedule: Q01DX009 (ip), vehicle: saline) 97 % of control; (endpoint: mean survival time, dose: 100.0 mg/kg/injection, schedule: Q04DX003 (ip), vehicle: saline) 103 % of control; (endpoint: mean survival time, dose: 200.0 mg/kg/injection, schedule: Q04DX003 (ip), vehicle: saline) 108 % of control.

In the case of `Nc1cc(N)c([N+](=O)[O-])cc1[N+](=O)[O-]`, the T/C runs as follows: under setting [3], 100 % of control; under setting [4], 91 % of control; under setting [5], 108 % of control.

As to `O=C(O)CC(=O)O.[NH-]CC[NH-].[Pt+2]`, the T/C is, setting by setting: (endpoint: mean survival time, dose: 25.0 mg/kg/injection, schedule: Q01DX009 (ip), vehicle: dextrose) 100 % of control; (endpoint: median survival time, dose: 40.0 mg/kg/injection, schedule: Q01DX009 (ip), vehicle: saline with Tween-80) 89 % of control; (endpoint: median survival time, dose: 50.0 mg/kg/injection, schedule: Q01DX001 (ip), vehicle: saline) 111 % of control.

In the case of `O=C=N/C=C/NC(=O)Nc1cccc(Cl)c1`, the T/C is, setting by setting: (endpoint: mean survival time, dose: 100.0 mg/kg/injection, schedule: Q04DX002 (ip), vehicle: saline with Tween-80) 104 % of control; (endpoint: mean survival time, dose: 200.0 mg/kg/injection, schedule: Q04DX002 (ip), vehicle: saline with Tween-80) 93 % of control; (endpoint: mean survival time, dose: 400.0 mg/kg/injection, schedule: Q04DX002 (ip), vehicle: saline with Tween-80) 101 % of control.

For `C=C(Br)CNC(=O)NCCN1CCOCC1`, the T/C under setting [7] is 97 % of control, the T/C under setting [8] is 92 % of control and the T/C under setting [9] is 89 % of control.

As for `CC(C)(CO)CBr`, the T/C reads like this: under setting [7], 95 % of control; under setting [3], 95 % of control; under setting [8], 102 % of control; under setting [4], 97 % of control; under setting [9], 98 % of control; under setting [5], 95 % of control.
